In patent publication US20060069132A1, “Azolecarboxamide herbicides” (priority 2004, published 2006):

How the values were obtained:
barnyardgrass [1] = assay: Test B pre-/postemergence herbicide test; assay type: in vivo, Echinochloa crus-galli
Method in brief: (§1)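 Flooded paddy rice and barnyardgrass were treated at the 2-leaf stage; upland plantings received compound either on sown seed or on 1- to 4-leaf seedlings. All were kept 13–15 days in a greenhouse and scored visually, 0–100, relative to untreated plants.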

Surinam grass = assay: Test B pre-/postemergence herbicide test; assay type: in vivo, Urochloa decumbens
Method in brief: (§2)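 Pre: seeds sown, then sprayed. Post: 1–4-leaf plants (2–18 cm) sprayed at the same time. Paddy: flooded, treated at 2-leaf stage. Formulation: non-phytotoxic solvent with surfactant. Greenhouse 13–15 days; visual 0–100 score relative to controls.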

cocklebur = assay: Test B pre-/postemergence herbicide test; assay type: in vivo, Xanthium strumarium
Method in brief: as §1

corn = assay: Test B pre-/postemergence herbicide test; assay type: in vivo, Zea mays
Method in brief: as §2

large crabgrass = assay: Test B pre-/postemergence herbicide test; assay type: in vivo, Digitaria sanguinalis
Method in brief: as §2

giant foxtail = assay: Test B pre-/postemergence herbicide test; assay type: in vivo, Setaria faberi
Method in brief: as §2

lambsquarters = assay: Test B pre-/postemergence herbicide test; assay type: in vivo, Chenopodium album
Method in brief: as §2

morningglory = assay: Test B pre-/postemergence herbicide test; assay type: in vivo, Ipomoea coccinea
Method in brief: as §1

pigweed = assay: Test B pre-/postemergence herbicide test; assay type: in vivo, Amaranthus retroflexus
Method in brief: as §2

velvetleaf = assay: Test B pre-/postemergence herbicide test; assay type: in vivo, Abutilon theophrasti
Method in brief: as §2

blackgrass = assay: Test B postemergence herbicide test; assay type: in vivo, Alopecurus myosuroides; details: for Plant response rating, Blackgrass: 500 g ai/ha, visual rating after 13 to 15 days
Method in brief: (§3)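 After treating 2-leaf paddy plants or 2–18 cm postemergence plants (1 to 4 leaves) with formulated chemical, researchers kept them in a greenhouse for 13–15 days. Effects were judged visually versus controls: 0 indicates none, 100 total control.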

wheat = assay: Test B postemergence herbicide test; assay type: in vivo, Triticum aestivum; parameters: key to Wheat plant response rating: 0 = no effect, 100 = complete control; details: for Plant response rating, Wheat: 500 g ai/ha, visual rating after 13 to 15 days
Method in brief: (§4)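 Treated at 2-leaf (paddy) or 1–4-leaf, 2–18 cm (postemergence); greenhouse 13–15 d; visual score vs control, 0 none to 100 complete control; dash = not tested.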

wild oat = assay: Test B postemergence herbicide test; assay type: in vivo, Avena fatua; details: for Plant response rating, Oat, Wild: 500 g ai/ha, visual rating after 13 to 15 days
Method in brief: as §4

rice = assay: Test B flooded paddy test; assay type: in vivo, Oryza sativa; details: 1000 g ai/ha, visual rating, scale 0 to 100 (0 no effect, 100 complete control), 13 to 15 days
Method in brief: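 Plants grow to 1- to 4-leaf stage (2–18 cm) for postemergence spraying, or to 2-leaf stage for the paddy test. Formulated compound is applied. Greenhouse holding lasts 13–15 days. Response is scored visually relative to controls, 0 no effect to 100 complete control; a dash means no result.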

[2] = system: small flower umbrella sedge; assay: Test B flooded paddy test; assay type: in vivo, Cyperus difformis; details: 1000 g ai/ha, visual rating, scale 0 to 100 (0 no effect, 100 complete control), 13 to 15 days
Method in brief: as §3

ducksalad = assay: Test B flooded paddy test; assay type: in vivo, Heteranthera limosa; details: 1000 g ai/ha, visual rating, scale 0 to 100 (0 no effect, 100 complete control), 13 to 15 days
Experimental: At the same time, plants selected from these crop and weed species and also blackgrass (Alopecurus myosuroides Huds.), wheat (Triticum aestivum L.) and wild oat (Avena fatua L.) were treated with postemergence applications of test chemicals formulated in the same manner. Plants ranged in height from 2 to 18 cm (1- to 4-leaf stage) for postemergence treatments. Plant species in the flooded paddy test consisted of rice (Oryza sativa L.), small flower umbrella sedge (Cyperus difformis L.), ducksalad (Heteranthera limosa (Sw.) Willd.) and barnyardgrass (Echinochloa crus-galli (L.) Beauv.) grown to the 2-leaf stage for testing. Treated plants and controls were maintained in a greenhouse for 13 to 15 days, after which time all species were compared to controls and visually evaluated. Plant response ratings, summarized in Table B, are based on a scale of 0 to 100 where 0 is no effect and 100 is complete control. A dash (-) response means no test result.

barnyardgrass [3] = assay: Test B flooded paddy test; assay type: in vivo, Echinochloa crus-galli; details: 1000 g ai/ha, visual rating, scale 0 to 100 (0 no effect, 100 complete control), 13 to 15 days
Method in brief: as §3

[4] = Postemergence, 125 g ai/ha, scale 0 (no effect) to 100 (complete control)
[5] = Postemergence, 500 g ai/ha, visual rating after 13 to 15 days, scale 0 (no effect) to 100 (complete control)
[6] = Preemergence, 500 g ai/ha, scale 0 to 100
[7] = preemergence, 125 g ai/ha, 0 to 100 scale, 0 is no effect, 100 is complete control
[8] = Postemergence, scale 0 (no effect) to 100 (complete control)
[9] = Postemergence, 250 g ai/ha, scale 0 (no effect) to 100 (complete control)
[10] = postemergence, 62 g ai/ha, scale 0 to 100
[11] = 250 g ai/ha, scale 0 to 100, 0 no effect, 100 complete control, preemergence
[12] = 500 g ai/ha, visual rating 0-100, 0 no effect, 100 complete control, preemergence
[13] = postemergence, 125 g ai/ha, visual rating, scale 0 (no effect) to 100 (complete control)

Compound: C=Cn1nc(C(C)(C)C)cc1C(=O)Nc1cccc(C(=O)NCC(F)(F)F)c1 [Compound 37]
- Barnyardgrass plant response rating (barnyardgrass [1]; [4]): 20
- Plant response rating, Barnyardgrass (barnyardgrass [1]; [5]): 20
- Barnyardgrass plant response rating (barnyardgrass [1]; [6]): 60
- Plant response rating, Surinam Grass (Surinam grass; [5]): 20
- Surinam Grass plant response rating (Surinam grass; [6]): 40
- Plant response rating, Surinam Grass (Surinam grass; [7]): 10
- Cocklebur plant response rating (cocklebur; [4]): 60
- Plant response rating, Cocklebur (cocklebur; [5]): 80
- Cocklebur plant response rating (cocklebur; [6]): 0
- Corn plant response rating (corn; [6]): 10
- Crabgrass, Large plant response rating (large crabgrass; [4]): 10
- Plant response rating, Crabgrass, Large (large crabgrass; [5]): 20
- Crabgrass, Large plant response rating (large crabgrass; [6]): 90
- Foxtail, Giant plant response rating (giant foxtail; [4]): 20
- Plant response rating, Foxtail, Giant (giant foxtail; [5]): 20
- Foxtail, Giant plant response rating (giant foxtail; [6]): 60
- Plant response rating, Foxtail, Giant (giant foxtail; [7]): 20
- Lambsquarters plant response rating (lambsquarters; [4]): 80
- Plant response rating, Lambsquarters (lambsquarters; [5]): 90
- Lambsquarters plant response rating (lambsquarters; [6]): 100
- Plant response rating, Lambsquarters (lambsquarters; [7]): 10
- Morningglory plant response rating (morningglory; [6]): 0
- Plant response rating, Morningglory (morningglory; [7]): 0
- Plant response rating, Pigweed (pigweed; [5]): 90
- Pigweed plant response rating (pigweed; [6]): 100
- Plant response rating, Pigweed (pigweed; [7]): 80
- Plant response rating, Velvetleaf (velvetleaf; [5]): 40
- Velvetleaf plant response rating (velvetleaf; [6]): 20
- Plant response rating, Velvetleaf (velvetleaf; [7]): 20
- Blackgrass plant response rating (blackgrass; [4]): 10
- Plant response rating, Blackgrass (blackgrass; [8]): 10
- Plant response rating, Wheat (wheat; [8]): 20
- Oat, Wild plant response rating (wild oat; [4]): 10
- Plant response rating, Oat, Wild (wild oat; [8]): 20
- Rice plant response rating (rice): 50
- Sedge, Umbrella plant response rating [2]: 90
- Ducksalad plant response rating (ducksalad): 60
- Barnyardgrass plant response rating (barnyardgrass [3]): 30

Compound: CCOC(=O)c1ccc(F)c(NC(=O)c2cc(C(C)C)nn2CC)c1 [Compound 73]
- Barnyardgrass plant response rating (barnyardgrass [1]; [9]): 10
- Barnyardgrass plant response rating (barnyardgrass [1]; [10]): 0
- Surinam Grass plant response rating (Surinam grass; [9]): 10
- Surinam Grass plant response rating (Surinam grass; [10]): 10
- Cocklebur plant response rating (cocklebur; [9]): 20
- Cocklebur plant response rating (cocklebur; [10]): 20
- Corn plant response rating (corn; [9]): 30
- Corn plant response rating (corn; [10]): 0
- Crabgrass, Large plant response rating (large crabgrass; [9]): 10
- Crabgrass, Large plant response rating (large crabgrass; [10]): 0
- Foxtail, Giant plant response rating (giant foxtail; [9]): 30
- Foxtail, Giant plant response rating (giant foxtail; [10]): 10
- Lambsquarters plant response rating (lambsquarters; [9]): 10
- Lambsquarters plant response rating (lambsquarters; [10]): 0
- Morningglory plant response rating (morningglory; [9]): 10
- Morningglory plant response rating (morningglory; [10]): 10
- Pigweed plant response rating (pigweed; [9]): 20
- Pigweed plant response rating (pigweed; [10]): 10
- Velvetleaf plant response rating (velvetleaf; [9]): 50
- Velvetleaf plant response rating (velvetleaf; [10]): 30
- Blackgrass plant response rating (blackgrass; [9]): 30
- Blackgrass plant response rating (blackgrass; [10]): 30
- Wheat plant response rating (wheat; [11]): 20
- Wheat plant response rating (wheat; [9]): 30
- Wheat plant response rating (wheat; [10]): 20
- Oat, Wild plant response rating (wild oat; [9]): 40
- Oat, Wild plant response rating (wild oat; [10]): 20
- Rice plant response rating (rice): 50
- Sedge, Umbrella plant response rating [2]: 80
- Ducksalad plant response rating (ducksalad): 10
- Barnyardgrass plant response rating (barnyardgrass [3]): 30

Compound: CCOC(=O)c1ccc(F)c(NC(=O)c2cc(C3CC3)nn2CC)c1 [Compound 74]
- Barnyardgrass plant response rating (barnyardgrass [1]; [9]): 0
- Barnyardgrass plant response rating (barnyardgrass [1]; [10]): 0
- Surinam Grass plant response rating (Surinam grass; [9]): 10
- Surinam Grass plant response rating (Surinam grass; [10]): 0
- Cocklebur plant response rating (cocklebur; [9]): 0
- Cocklebur plant response rating (cocklebur; [10]): 0
- Corn plant response rating (corn; [9]): 0
- Corn plant response rating (corn; [10]): 0
- Crabgrass, Large plant response rating (large crabgrass; [9]): 10
- Crabgrass, Large plant response rating (large crabgrass; [10]): 0
- Foxtail, Giant plant response rating (giant foxtail; [9]): 10
- Foxtail, Giant plant response rating (giant foxtail; [10]): 10
- Lambsquarters plant response rating (lambsquarters; [9]): 10
- Lambsquarters plant response rating (lambsquarters; [10]): 0
- Morningglory plant response rating (morningglory; [9]): 10
- Morningglory plant response rating (morningglory; [10]): 0
- Pigweed plant response rating (pigweed; [9]): 20
- Pigweed plant response rating (pigweed; [10]): 20
- Velvetleaf plant response rating (velvetleaf; [9]): 30
- Velvetleaf plant response rating (velvetleaf; [10]): 0
- Blackgrass plant response rating (blackgrass; [9]): 50
- Blackgrass plant response rating (blackgrass; [10]): 30
- Wheat plant response rating (wheat; [11]): 0
- Wheat plant response rating (wheat; [9]): 20
- Wheat plant response rating (wheat; [10]): 20
- Oat, Wild plant response rating (wild oat; [9]): 40
- Oat, Wild plant response rating (wild oat; [10]): 30
- Rice plant response rating (rice): 0
- Sedge, Umbrella plant response rating [2]: 70
- Ducksalad plant response rating (ducksalad): 0
- Barnyardgrass plant response rating (barnyardgrass [3]): 0

Compound: CCON=C(C)c1cccc(NC(=O)c2cc(C(C)(C)C)nn2C)c1 [Compound 105]
- Plant response rating, Barnyardgrass (barnyardgrass [1]; [12]): 30
- Plant response rating, Barnyardgrass (barnyardgrass [1]; [5]): 0
- Barnyardgrass plant response rating (barnyardgrass [1]; [13]): 0
- Plant response rating, Barnyardgrass (barnyardgrass [1]; [7]): 0
- Plant response rating, Surinam Grass (Surinam grass; [12]): 10
- Plant response rating, Surinam Grass (Surinam grass; [5]): 10
- Surinam Grass plant response rating (Surinam grass; [13]): 0
- Plant response rating, Surinam Grass (Surinam grass; [7]): 0
- Plant response rating, Cocklebur (cocklebur; [12]): 0
- Plant response rating, Cocklebur (cocklebur; [5]): 30
- Cocklebur plant response rating (cocklebur; [13]): 30
- Plant response rating, Cocklebur (cocklebur; [7]): 0
- Plant response rating, Corn (corn; [12]): 0
- Plant response rating, Corn (corn; [5]): 0
- Corn plant response rating (corn; [13]): 0
- Plant response rating, Corn (corn; [7]): 0
- Plant response rating, Crabgrass, Large (large crabgrass; [12]): 90
- Plant response rating, Crabgrass, Large (large crabgrass; [5]): 0
- Crabgrass, Large plant response rating (large crabgrass; [13]): 0
- Plant response rating, Crabgrass, Large (large crabgrass; [7]): 0
- Plant response rating, Foxtail, Giant (giant foxtail; [12]): 10
- Plant response rating, Foxtail, Giant (giant foxtail; [5]): 0
- Foxtail, Giant plant response rating (giant foxtail; [13]): 0
- Plant response rating, Foxtail, Giant (giant foxtail; [7]): 0
- Plant response rating, Lambsquarters (lambsquarters; [12]): 80
- Plant response rating, Lambsquarters (lambsquarters; [5]): 80
- Lambsquarters plant response rating (lambsquarters; [13]): 50
- Plant response rating, Lambsquarters (lambsquarters; [7]): 0
- Plant response rating, Morningglory (morningglory; [12]): 10
- Plant response rating, Morningglory (morningglory; [5]): 10
- Morningglory plant response rating (morningglory; [13]): 0
- Plant response rating, Morningglory (morningglory; [7]): 0
- Plant response rating, Pigweed (pigweed; [12]): 80
- Plant response rating, Pigweed (pigweed; [5]): 80
- Pigweed plant response rating (pigweed; [13]): 0
- Plant response rating, Pigweed (pigweed; [7]): 0
- Plant response rating, Velvetleaf (velvetleaf; [12]): 0
- Plant response rating, Velvetleaf (velvetleaf; [5]): 0
- Velvetleaf plant response rating (velvetleaf; [13]): 0
- Plant response rating, Velvetleaf (velvetleaf; [7]): 0
- Plant response rating, Blackgrass (blackgrass; [8]): 0
- Blackgrass plant response rating (blackgrass; [13]): 0
- Plant response rating, Wheat (wheat; [8]): 0
- Wheat plant response rating (wheat; [13]): 0
- Plant response rating, Oat, Wild (wild oat; [8]): 10
- Oat, Wild plant response rating (wild oat; [13]): 0
- Rice plant response rating (rice): 0
- Sedge, Umbrella plant response rating [2]: 70
- Ducksalad plant response rating (ducksalad): 70
- Barnyardgrass plant response rating (barnyardgrass [3]): 20
